Reference: patent US20200017496A1 (priority 2017, published 2020)
Where two headings read alike, the source gives them in different places.

What was measured:
Assay in all cases: MIC of compounds alone and combined with antibacterials, broth microdilution (CLSI)
Format in all cases: cell-based
[1] = tested on: Salmonella typhimurium (STY) isolates; conditions: STY S3371
Procedure, shortened: (§1)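 First, log-phase suspensions are brought to a final 5·10^5 CFU/mL in cation-adjusted Mueller-Hinton broth. Then plates with compound, antibacterial, or both incubate 16-20 h at 35° C under ambient air. Finally, visual inspection gives the lowest growth-preventing concentration for each agent.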

[2] = tested on: Klebsiella oxytoca (KOX) isolates; conditions: for MIC ATB in combination: AF1 @ 4 μg/mL
Procedure, shortened: as §1

[3] = tested on: Serratia marcescens (SMA) isolates
Procedure, shortened: as §1

[4] = tested on: Citrobacter koseri (CKR) isolates; conditions: for MIC ATB in combination: AF1 @ 4 μg/mL
Procedure, shortened: as §1

[5] = tested on: Providencia rettgeri (PRE) isolates
Procedure, shortened: as §1

[6] = tested on: Enterobacter cloacae (ECL) isolates
Procedure, shortened: as §1

**Q.** Which results are given for `C=CC1=C(C(=O)O)N2C(=O)[C@@H](NC(=O)/C(=N\O)c3csc(N)n3)[C@H]2SC1` [CDR, Cefdinir]?
**A.** MIC ATB in combination ([1]; AF1 @ 4 μg/mL): <=0.25 μg/mL; MIC ATB in combination ([2]; KOX UFR21): 8 µg/mL; MIC ATB in combination ([2]; KOX UFR173): 0.5 µg/mL; MIC ATB in combination ([2]; KOX UFR223): <=0.25 μg/mL; MIC ATB in combination ([2]; KOX UFR224): <=0.25 μg/mL; MIC ([2]; Klebsiella oxytoca, strain KOX UFR21 (TEM-1, CTX-M-15, OXA-48), ATB alone): > 256 µg/mL; MIC ([2]; Klebsiella oxytoca, strain KOX UFR223 (SHV-11, OXA-48), ATB alone): > 256 µg/mL; MIC ([2]; Klebsiella oxytoca, strain KOX UFR224 (CTX-M-15, OXA-48), ATB alone): > 256 µg/mL; MIC ATB in combination ([3]; SMA UFR30, AF1 @ 4 μg/mL): 1 µg/mL; MIC ATB in combination ([3]; SMA UFR134, AF1 @ 4 μg/mL): 4 µg/mL; MIC ATB in combination ([3]; SMA UFR135, AF1 @ 4 μg/mL): 16 µg/mL; MIC ATB in combination ([3]; SMA UFR136, AF1 @ 4 μg/mL): 16 µg/mL; MIC ATB in combination ([3]; SMA UFR137, AF1 @ 4 μg/mL): 1 µg/mL; MIC ATB in combination ([3]; SMA UFR138, AF1 @ 4 μg/mL): 4 µg/mL; MIC ATB in combination ([3]; SMA UFR139, AF1 @ 4 μg/mL): 4 µg/mL; MIC ATB in combination ([3]; SMA UFR141, AF1 @ 4 μg/mL): 4 µg/mL; MIC ATB in combination ([3]; SMA UFR142, AF1 @ 4 μg/mL): 8 µg/mL; MIC ATB in combination ([3]; SMA UFR143, AF1 @ 4 μg/mL): 2 µg/mL; MIC ATB in combination ([3]; SMA UFR239, AF1 @ 4 μg/mL): 16 µg/mL; MIC ([3]; Serratia marcescens, ATB alone, strain SMA UFR238 (OXA-48), read-out: MIC): > 256 µg/mL; MIC ([3]; Serratia marcescens, strain SMA UFR30 (OXA-405), ATB alone, read-out: MIC): > 256 µg/mL; MIC ([3]; Serratia marcescens, strain SMA UFR136 (TEM-1, SHV-12, KPC-2), ATB alone, read-out: MIC): > 256 µg/mL; MIC ([3]; Serratia marcescens, strain SMA UFR141 (OXA-48), ATB alone, read-out: MIC): > 256 µg/mL; MIC ([3]; Serratia marcescens, strain SMA UFR142 (OXA-48), ATB alone, read-out: MIC): > 256 µg/mL; MIC ([3]; Serratia marcescens, strain SMA UFR143 (CTX-M-15, OXA-1, OXA-48), ATB alone, read-out: MIC): > 256 µg/mL; MIC ATB in combination ([3]; strain SMA UFR238, antibacterial combined with AF1 @ 4 μg/mL): 4 µg/mL; MIC ATB in combination ([4]; CKO ROU): 2 µg/mL; MIC ATB in combination ([4]; CKO UFR149): 32 µg/mL; MIC ATB in combination ([4]; CKO UFR150): 4 µg/mL; MIC ([4]; Citrobacter koseri, strain CKO ROU (TEM-1, SHV-12, CTX-M-15, OXA-1, OXA-48), ATB alone): > 256 µg/mL; MIC ([4]; Citrobacter koseri, strain CKO UFR150 (TEM-1, OXA-48), ATB alone): > 256 µg/mL; MIC ATB in combination ([5]; PRE UFR99, AF1 @ 4 μg/mL): >128 µg/mL; MIC ATB in combination ([5]; strain PRE UFR236, antibacterial combined with AF1 @ 4 μg/mL): 2 µg/mL; MIC ATB in combination ([6]; ECL 190310, AF1 @ 4 μg/mL): 64 µg/mL; MIC ATB in combination ([6]; ECL 190408, AF1 @ 4 μg/mL): <=0.25 μg/mL; MIC ATB in combination ([6]; ECL 200138, AF1 @ 4 μg/mL): 64 µg/mL; MIC ATB in combination ([6]; ECL 200322, AF1 @ 4 μg/mL): 4 µg/mL; MIC ATB in combination ([6]; ECL 260253, AF1 @ 4 μg/mL): 32 µg/mL; MIC ATB in combination ([6]; ECL 260323, AF1 @ 4 μg/mL): 64 µg/mL; MIC ATB in combination ([6]; ECL 260508, AF1 @ 4 μg/mL): 2 µg/mL; MIC ATB in combination ([6]; ECL NEM146383, AF1 @ 4 μg/mL): 32 µg/mL; MIC ATB in combination ([6]; ECL P99, AF1 @ 4 μg/mL): 16 µg/mL; MIC ATB in combination ([6]; ECL UFR12, AF1 @ 4 μg/mL): 4 µg/mL; MIC ATB in combination ([6]; ECL UFR13, AF1 @ 4 μg/mL): 16 µg/mL; MIC ATB in combination ([6]; ECL UFR14, AF1 @ 4 μg/mL): 32 µg/mL; MIC ATB in combination ([6]; ECL UFR60, AF1 @ 4 μg/mL): 8 µg/mL; MIC ATB in combination ([6]; ECL UFR70, AF1 @ 4 μg/mL): 4 µg/mL; MIC ATB in combination ([6]; ECL UFR84, AF1 @ 4 μg/mL): 64 µg/mL; MIC ATB in combination ([6]; ECL UFR85, AF1 @ 4 μg/mL): 8 µg/mL; MIC ATB in combination ([6]; ECL UFR194, AF1 @ 4 μg/mL): 2 µg/mL; MIC ATB in combination ([6]; ECL UFR200, AF1 @ 4 μg/mL): 2 µg/mL; MIC ATB in combination ([6]; strain ECL UFR195, antibacterial combined with AF1 @ 4 μg/mL): 4 µg/mL; MIC ATB in combination ([6]; strain ECL UFR196, antibacterial combined with AF1 @ 4 μg/mL): 16 µg/mL; MIC ATB in combination ([6]; strain ECL UFR197, antibacterial combined with AF1 @ 4 μg/mL): 8 µg/mL; MIC ATB in combination ([6]; strain ECL UFR198, antibacterial combined with AF1 @ 4 μg/mL): 32 µg/mL

**Q.** With `NC(=O)[C@@H]1CC[C@@H]2CN1C(=O)N2OC(F)(F)C(=O)[O-].[Na+]` [EA1] as the molecule, how does the MIC ([1]; alone) read?
**A.** >32 µg/mL

**Q.** What about the MIC ([2]; KOX UFR21, alone) of the same molecule?
**A.** >32 µg/mL

**Q.** What about the MIC ([2]; KOX UFR173, alone) of the same molecule?
**A.** >32 µg/mL

**Q.** What about the MIC ([2]; KOX UFR223, alone) of the same molecule?
**A.** >32 µg/mL

**Q.** And the MIC ([2]; KOX UFR224, alone)?
**A.** >32 µg/mL

**Q.** What about the MIC ([3]; SMA UFR30, alone) of the same molecule?
**A.** >32 µg/mL

**Q.** And the MIC ([3]; SMA UFR134, alone)?
**A.** >32 µg/mL

**Q.** What about the MIC ([3]; SMA UFR135, alone) of the same molecule?
**A.** >32 µg/mL

**Q.** What about the MIC ([3]; SMA UFR136, alone) of the same molecule?
**A.** >32 µg/mL

**Q.** What about the MIC ([3]; SMA UFR137, alone) of the same molecule?
**A.** >32 µg/mL

**Q.** What about the MIC ([3]; SMA UFR138, alone) of the same molecule?
**A.** >32 µg/mL

**Q.** And the MIC ([3]; SMA UFR139, alone)?
**A.** >32 µg/mL

**Q.** And the MIC ([3]; SMA UFR141, alone)?
**A.** >32 µg/mL

**Q.** What about the MIC ([3]; SMA UFR142, alone) of the same molecule?
**A.** >32 µg/mL

**Q.** What about the MIC ([3]; SMA UFR143, alone) of the same molecule?
**A.** 64 µg/mL

**Q.** And the MIC ([3]; SMA UFR239, alone)?
**A.** >32 µg/mL

**Q.** What about the MIC ([3]; strain SMA UFR238, compound alone) of the same molecule?
**A.** >32 µg/mL

**Q.** What about the MIC ([4]; CKO ROU, alone) of the same molecule?
**A.** 16 µg/mL

**Q.** What about the MIC ([4]; CKO UFR149, alone) of the same molecule?
**A.** 16 µg/mL

**Q.** What about the MIC ([4]; CKO UFR150, alone) of the same molecule?
**A.** >32 µg/mL

**Q.** What about the MIC ([5]; PRE UFR99, alone) of the same molecule?
**A.** 32 µg/mL

**Q.** What about the MIC ([5]; strain PRE UFR236, compound alone) of the same molecule?
**A.** >32 µg/mL

**Q.** What about the MIC ([6]; ECL 2185D, alone) of the same molecule?
**A.** 16 µg/mL

**Q.** And the MIC ([6]; ECL 190310, alone)?
**A.** 32 µg/mL

**Q.** And the MIC ([6]; ECL 190408, alone)?
**A.** >128 µg/mL

**Q.** What about the MIC ([6]; ECL 200138, alone) of the same molecule?
**A.** >32 µg/mL

**Q.** And the MIC ([6]; ECL 200322, alone)?
**A.** 16 µg/mL

**Q.** What about the MIC ([6]; ECL 260033, alone) of the same molecule?
**A.** 16 µg/mL

**Q.** What about the MIC ([6]; ECL 260253, alone) of the same molecule?
**A.** >32 µg/mL

**Q.** And the MIC ([6]; ECL 260323, alone)?
**A.** >32 µg/mL

**Q.** What about the MIC ([6]; ECL 260508, alone) of the same molecule?
**A.** >32 µg/mL

**Q.** And the MIC ([6]; ECL NEM146383, alone)?
**A.** 32 µg/mL

**Q.** And the MIC ([6]; ECL P99, alone)?
**A.** 16 µg/mL

**Q.** And the MIC ([6]; ECL UFR12, alone)?
**A.** 32 µg/mL

**Q.** What about the MIC ([6]; ECL UFR13, alone) of the same molecule?
**A.** 32 µg/mL

**Q.** And the MIC ([6]; ECL UFR14, alone)?
**A.** >32 µg/mL

**Q.** What about the MIC ([6]; ECL UFR60, alone) of the same molecule?
**A.** 32 µg/mL

**Q.** What about the MIC ([6]; ECL UFR70, alone) of the same molecule?
**A.** 32 µg/mL

**Q.** And the MIC ([6]; ECL UFR84, alone)?
**A.** >32 µg/mL

**Q.** And the MIC ([6]; ECL UFR85, alone)?
**A.** >32 µg/mL

**Q.** And the MIC ([6]; ECL UFR194, alone)?
**A.** >32 µg/mL

**Q.** What about the MIC ([6]; ECL UFR200, alone) of the same molecule?
**A.** >32 µg/mL

**Q.** And the MIC ([6]; strain ECL UFR195, compound alone)?
**A.** >32 µg/mL

**Q.** And the MIC ([6]; strain ECL UFR196, compound alone)?
**A.** >32 µg/mL

**Q.** And the MIC ([6]; strain ECL UFR197, compound alone)?
**A.** 16 µg/mL

**Q.** What about the MIC ([6]; strain ECL UFR198, compound alone) of the same molecule?
**A.** >32 µg/mL
